Assay results reported in publication PMC9563500, “Effect of Coffee on the Bioavailability of Sterols” (Foods, 2022).
Where two headings read alike, the source gives them in different places. Each block holds one compound with its values, some of them ahead of it.

Columns and labels:
[1] = Absorptive (apical to basolateral) DHE permeability assay through Caco-2 monolayers; format: in vitro ADME, human; conditions: human, Caco-2, pH 7.4, GCA 10 mM, absence of coffee, 6 h, read-out: DHE apparent permeability coefficient (Papp)
Method: (§1) For transport experiments, the Caco-2 monolayers were prepared by seeding the cells at a density of 2.6 × 10^5 cells/cm^2 on 12-well polycarbonate Transwell^TM plates, following protocols previously defined for this assay. The cells were cultured until monolayer differentiation, for a total of 24 days, with culture medium being renewed every two days. On the day of the experiment, the culture medium was removed and replaced by HBSS medium pre-warmed at 37 °C (0.5 mL in the apical and 1.5 mL in the basolateral sides). The cell monolayers were placed in an incubator at 37 °C with a plate orbital shaker (IKA-Schüttler MTS4) at 50 rpm for 8 min. After two washing steps, the transepithelial electrical resistance (TEER) values were measured using a Millicell® ERS-2 voltmeter (Merck). The net TEER values (Ω cm^2) were obtained by subtracting the cell-free filter resistance and multiplying by filter area. All cell monolayers achieved TEER values exceeding 700 Ω cm^2 and were considered adequate for transport experiments.
(§2) In assessing the influence of coffees samples on DHE absorption by intestinal epithelia, the transport was studied in the absorptive way; that is, in the apical (mimicking the intestinal lumen) to the basolateral (mimicking the bloodstream) direction. The solutions of DHE to be applied in the apical side were prepared as follows: first, the lyophilized coffee extracts (16-fold diluted) were dissolved with GCA (10 mM) solution in HBSS. Then, the mixtures were allowed to equilibrated overnight in a 37 °C in a water bath with shaking at 100 rpm. On the day of the experiment, DHE was added to the coffee/GCA mixture or to GCA only (Control) as an aliquot from a DMSO stock of 10 mM DHE. Addition was performed under vigorous vortex mixing to facilitate DHE interaction with the GCA micelles and prevent its precipitation. The final DHE concentration ranged from 10 to 100 μM, corresponding to ≤1% (v/v) DMSO. To allow evaluation of the cell monolayer integrity in each permeability assay, the paracellular marker Lucifer Yellow (LY) was also added to the final mixtures at a concentration of 20 μM. The solutions were maintained at 37 °C until application in the permeability assay, and where optically clear.
(§3) It was therefore necessary to guarantee that the composition of the acceptor compartment in the permeability assay has an adequate ability to solubilize the sterol and allow its quantification. To approach the in vivo conditions in absorptive cholesterol transport, the acceptor compartment contained serum albumin at 100 µM, which corresponds to the concentration usually found in interstitial tissues. Serum albumin binds the cholesterol analog DHE with low to moderate affinity, KB = 5 × 10^4 [37], and at the concentration used DHE solubility is increased by at least an order of magnitude. To decrease the adsorption of DHE to the plate well and to the basolateral membrane, the transport media added to the basolateral side contained additionally 1% (v/v) DMSO. The presence of BSA and DMSO lead to improved sink conditions and higher DHE recoveries. The solutions from the acceptor compartments in the permeability assay where lyophilized directly in the wells of the permeability assay. A small amount of water was then added to facilitate detachment from the plate and solubilize salts and BSA. Ice-cold methanol was then added to dissolve DHE and precipitate the serum albumin. The DHE recovery efficiency when following this procedure was at least 90% (for details see Table S3 of the Supplementary Materials).
(§4) To start the absorptive transport experiments, the HBSS on the apical side was removed and replaced with 450 μL of the test solution (emulsified DHE + LY, emulsified DHE + coffee + LY or LY solutions). After addition of the test solution, 50 μL was collected (corresponding to a time delay of about 2 min) and the inserts were moved to a 12-well plate containing 1.2 mL of the basolateral transport medium. […]

Caco-2 monolayers [2] = assay: as above; format: in vitro ADME, human
Method: as §1, §2, §3, §4

[3] = Solubility of DHE in GCA micelles (DHE fluorescence intensity); format: physicochemical; conditions: GCA 10 mM; Figure S6
Method: S5 – Solubility of DHE in GCA micelles
The solubility of DHE in the GCA micelles at the concentration of GCA used in the
permeability assays (10 mM) was characterized from variations in DHE fluoresc ence in-
tensity. The c once ntrati on of DHE was varied from 1 to 70 μM, with DHE bei ng ad ded to
the GCA solution by squirti ng a small v olume of a DHE solution i n DMSO (% DMSO < 1
%). The solutions obtai ned were optically clear and stable. However, the flu oresce nce in-
tensity measured in a right-angle geometry was not linearly dependent on the intensity
of light absorbed, Figure S6. This behaviour is in part due to geometr ical constraints due
to the right-angle detection, with a significant fluoresce nce being emitted but not detected.
present as small aggregates.
Figure S6. Dependence of DHE fluorescence intensity ex/em = 324/372 nm on the intensity of light
absorbed by DHE, when added to aqueous solutions containing 10 mM GCA. The hollow symbols
correspond to DHE concentrations equal to 1, 5 and 10 μM, and the filled symbols correspond to
DHE at 25, 50 and 70 μM. The line represents the best fit for the hollow symbols. […]

[4] = design: method as in PMID 4027244; conditions: aqueous media; cited from earlier work
[5] = design: method as in PMID 17766353; conditions: cited from earlier work
[6] = MTT cell viability assay (bile salts and coffee extracts); format: cell-based; conditions: human, Caco-2 cells, pH 7.4; for viability at 2 h: Figure S4 (incubation 2 h)
Method: The influence of bile salts and coffee extracts on the Caco-2 cells viability was assessed with the MTT assay for determination of mitochondrial activity in active cells. Briefly, the cells were seeded in 96-well plates at a density of 1 × 10^4 cells/well in 200 μL of medium. Cells were then maintained in culture until confluence, for 96 h with medium renewal after 3 days. Solutions of individual bile salts GCDCA, GDCA, GCA and the combination of all three were prepared in the transport buffer HBSS (containing 25 mM HEPES, 0.35 g/L sodium bicarbonate, pH 7.4) at several concentrations above their critical micellar concentration (CMC). Two-fold serial dilutions of individual coffee extracts or mixtures with the bile salts were prepared by diluting the lyophilized extracts in HBSS or HBSS plus bile salts. The following controls were also included: 20% (v/v) of dimethyl sulfoxide (DMSO) in HBSS (positive control) and only HBSS (negative control). The cells were incubated for 6 h with test samples or controls (200 μL). Then, the cells were washed with PBS and incubated with 150 μL of MTT diluted in medium (0.5 mg/mL) for 4 h at 37 °C. Finally, the medium was discarded, and the formazan crystals produced by active cells were solubilized with dimethyl sulfoxide (150 μL) for 15 min under continuous stirring. The absorbances were measured at 570 nm in a Synergy HT Microplate Reader (BioTek Instruments, Inc., Winooski, VT, USA). All conditions were performed in triplicate. Results are expressed as a percentage of cell viability relative to the negative control.

[7] = 50 mM bile salt concentration; cited from earlier work
[8] = design: method as in PMID 27079626, PMID 22569559; conditions: cited from earlier work
Caco-2 monolayers [9] = assay: Lucifer Yellow paracellular permeability through Caco-2 monolayers (cell monolayer integrity); format: in vitro ADME, human
Method: as §1, §2
To start the absorptive transport experiments, the HBSS on the apical side was removed and replaced with 450 μL of the test solution (emulsified DHE + LY, emulsified DHE + coffee + LY or LY solutions). After addition of the test solution, 50 μL was collected (corresponding to a time delay of about 2 min) and the inserts were moved to a 12-well plate containing 1.2 mL of the basolateral transport medium. The plate was kept at 37 °C under stirring at 50 rpm for a total period of 6 h, with the assays being performed with either a single point sampling or three-points with 2 h sampling intervals. During the three-point sampling assay, 25 μL of the apical compartment was withdrawn at 2 and 4 h and replaced with fresh HBSS. At each time point indicated, the insert was also moved to another 12-well plate containing fresh basolateral medium (transfer sampling). At the end of the experiment (t6h), the inserts were transferred into empty wells and 50 μL were collected from the apical compartment and the remaining solution was decanted and stored. The 12-well plates with the samples of the basolateral compartments were frozen (−18 °C) and lyophilized. The same procedure was also applied to the aliquots of the apical side. All samples were then stored in a humidity-controlled environment until analysis.
The paracellular permeability of each cell monolayer was assessed by the quantification of LY transport from the apical and basolateral sides. For the samples from the apical side, aliquots of 50 μL were withdrawn at the beginning and end of the permeation experiment. The samples were diluted 30-fold and 100 µL were transferred to a 96-wells plate with clear bottom and black sides (Thermo Scientific Nunc). […]

[10] = average over Table 2 samples (DHE 10, 50 and 100 µM)
[11] = multi-time point assay, LY 20 µM alone or with DHE 10 µM emulsified by GCA 10 mM, without or with coffee extract (16-fold diluted), n = 2

Compound: CC(C)[C@@H](C)C=C[C@@H](C)[C@H]1CC[C@H]2C3=CC=C4C[C@@H](O)CC[C@]4(C)C3=CC[C@]12C [DHE, ergosta-5,7,9(11),22-tetraen-3β-ol]
Papp at 6 h, 50 µM ([1]; 50 µM DHE): 0.0017 ×10⁻⁶ cm/s
Papp at 6 h, 100 µM ([1]; 100 µM DHE): 0.026 ×10⁻⁶ cm/s
DHE in the acceptor (basolateral) compartment (Caco-2 monolayers [2]; DHE 10 µM apical, transfer sampling at 2, 4 and 6 h, detection limit 1.6 pmol): not detected
fraction of DHE that disappears from the apical transport media immediately after addition to the cell monolayers (Caco-2 monolayers [2]; DHE 10 µM, GCA 10 mM, about 2 min, control (no coffee) or with coffee brew diluted 16 times): 18.5 ± 3.9%
additional decrease of DHE in suspension in the apical compartment (Caco-2 monolayers [2]; DHE 10 µM, GCA 10 mM, at 4 and 6 h incubation): about 2%
amount of DHE extracted from the cells (Caco-2 monolayers [2]; end of permeability assay (6 h), DHE 10 µM, GCA 10 mM, control or with coffee brew): 16.3 ± 4.7%
DHE emulsified by GCA [3]: up to 10 µM
estimated critical aggregation concentration [4]: 25 nM
characteristic rate constant for desorption from membranes ([5]; liquid disordered phase): 0.001 s⁻¹
characteristic rate constant for desorption from membranes ([5]; liquid ordered phase): 6.9e-05 s⁻¹

Compound: C[C@H](CCC(=O)NCC(=O)O)[C@H]1CC[C@H]2[C@@H]3[C@H](O)C[C@@H]4C[C@H](O)CC[C@]4(C)[C@H]3C[C@H](O)[C@]12C [GCA, glycocholic acid]
viability at 6 h, 15 mM ([6]; GCA 15 mM, 6 h exposure, relative to HBSS control): 80%
viability at 2 h ([6]; GCA in HBSS at concentrations ≤12.5 mM): > 90%
capacity to emulsify cholesterol [7]: 1.0 mM
critical micelle concentration (CMC) [8]: 6.5 mM

Compound: CC(CCC(=O)NCC(=O)O)C1CCC2C3C(O)CC4CC(O)CCC4(C)C3CCC12C (stereo not drawn) [GCDCA, glycochenodeoxycholic acid]
capacity to emulsify cholesterol [7]: 1.3 mM
critical micelle concentration (CMC) [8]: 1.6 mM

Compound: CC(CCC(=O)NCC(=O)O)C1CCC2C3CCC4CC(O)CCC4(C)C3CC(O)C12C (stereo not drawn) [GDCA, glycodeoxycholic acid]
viability at 2 h ([6]; GDCA in HBSS, all tested concentrations (1.56–50 mM)): < 10%
capacity to emulsify cholesterol [7]: up to 3 mM
critical micelle concentration (CMC) [8]: 1.7 mM

Papp of LY, average value (Caco-2 monolayers [9]; [10]): 0.13 ×10⁻⁶ cm/s
amount of LY transported over the 6 h incubation, average value (Caco-2 monolayers [9]; [10]): 0.8%
Papp of LY (×10^−6) (Caco-2 monolayers [9]; multi-time point assay, last time interval of 2 h, LY alone or with DHE 10 µM/GCA 10 mM, without or with coffee extract, n = 2): 0.64 ×10^−6 cm/s
% Transport of LY 0–2 h (Caco-2 monolayers [9]; [11]): 1.6%
% Transport of LY 2–4 h (Caco-2 monolayers [9]; [11]): 0.9%
% Transport of LY 4–6 h (Caco-2 monolayers [9]; [11]): 1.3%
% Transport of LY 6 h (Caco-2 monolayers [9]; single time point 6 h, LY only): 1.6%
Papp of LY (×10^−6) (Caco-2 monolayers [9]; single time point 6 h, LY only): 0.27 ×10^−6 cm/s
Compound: Lucifer yellow CH di-potassium salt [LY]
